According to publication PMC8230565, “Bisavenathramide Analogues as Nrf2 Inductors and Neuroprotectors in In Vitro Models of Oxidative Stress and Hyperphosphorylation” (Antioxidants, 2021):

Legend:
[1] = biological target: AChE (Electrophorus electricus) (Electrophorus electricus, UniProt O42275); test: Acetylcholinesterase inhibition (Ellman's method); format: biochemical; conditions: for inhibition at 10 µM: 10 μM compound, read-out: % Inhibition of EeAChE at 10 μM; for IC50: n in brackets, read-out: IC50 (EeAChE)
Sequence of AChE (Electrophorus electricus) (O42275 24-633): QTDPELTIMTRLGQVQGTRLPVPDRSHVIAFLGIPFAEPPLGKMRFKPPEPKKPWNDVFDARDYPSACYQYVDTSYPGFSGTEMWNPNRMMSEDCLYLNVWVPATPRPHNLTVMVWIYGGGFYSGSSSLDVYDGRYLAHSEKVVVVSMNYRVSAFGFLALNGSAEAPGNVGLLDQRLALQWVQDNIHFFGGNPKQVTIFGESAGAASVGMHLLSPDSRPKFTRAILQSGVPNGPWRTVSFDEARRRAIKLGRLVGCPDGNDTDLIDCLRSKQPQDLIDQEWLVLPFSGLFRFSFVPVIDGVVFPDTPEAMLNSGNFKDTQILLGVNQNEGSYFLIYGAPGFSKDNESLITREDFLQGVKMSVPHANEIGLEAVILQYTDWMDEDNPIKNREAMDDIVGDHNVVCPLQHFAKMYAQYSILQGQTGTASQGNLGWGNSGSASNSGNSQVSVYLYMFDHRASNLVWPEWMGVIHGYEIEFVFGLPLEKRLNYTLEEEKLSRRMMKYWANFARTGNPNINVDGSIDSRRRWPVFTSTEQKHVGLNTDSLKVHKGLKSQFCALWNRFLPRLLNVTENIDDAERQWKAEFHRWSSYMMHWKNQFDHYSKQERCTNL
Procedure: Ellman’s method was employed to determine the inhibitory capacity of the compounds against AChE (Electrophorus electricus). The compounds were studied at 10 μM concentration, at room temperature, using PBS (0.1 M, pH 8) as solvent. Transparent 48-well microplates (COSTAR 3548) were used and, in each one, a blank was included. The compounds were incubated with the enzyme (0.09 U/mL) and with DTNB (0.35 mM) for 10 min. Afterwards, the enzyme substrate acetylthiocholine (0.35 mM) was added to a final volume of 1 mL. The microplate was incubated at room temperature for 15 min. Then, the absorbance was measured at 420 nm using the microplate reader FluoStar Optima (BMG Labtech, Ortenberg, Baden-Württemberg, Germany). The enzymatic activity was calculated by subtracting the blank absorbance from the sample absorbance and dividing the result by the absorbance of the maximum activity subtracted from blank absorbance, and the result was multiplied by one hundred to give a percentage. The inhibitory activity was calculated by subtracting the enzymatic activity from one hundred. Selected compounds were assayed at 0.3, 1, 3, 10, and 30 μM concentrations to obtain inhibition curves. The results were plotted versus concentration to obtain IC50 values through sigmoidal non-lineal adjustment. All the experiments were performed at least in triplicate.
Bisavenanthramide B-6 and heliotropamide A have been identified as acetylcholinesterase inhibitors. This precedent, coupled with our interest in the potential characterization of our compounds as multitarget-directed ligands, led us to investigate them as inhibitors of this enzyme, an important anti-Alzheimer target.

[2] = DPPH radical scavenging assay; conditions: for DPPH Scavenging at 0.1 mM, %: 0.1 mM compound; for DPPH Scavenging at 1 mM, %: 1 mM compound; for IC50: n in brackets
Procedure: The direct antioxidant effects of compounds 3 were investigated by studying their radical-scavenging effect on the 2,2-diphenyl-1-picrylhydrazyl free radical (DPPH^•). Thus, a 100 μL volume of a methanol solution of each compound was added to 200 μL of 100 μM methanolic DPPH^•, and the solution was kept in the dark at 37 °C for 30 min in a 96-well microliter plate. After this incubation, the absorption at 490 nm of each solution was measured with a microplate reader in order to quantitate its decrease. A blank reading was also taken to calculate the amount of remaining DPPH^•. The radical-scavenging activity exerted by compounds 3 was determined by comparison with a 10 μL of MeOH-treated blank group. Ascorbic acid, a well-known antioxidant acting as a radical scavenger, was used as reference. All samples were analyzed in triplicate. Percent inhibition of the DPPH^• radical was calculated using the equation shown below, where AbsCtrl is the absorbance of the blank group and Abss is the absorbance of the samples containing compounds 3. For each compound showing a percentage of inhibition above 60%, the IC50 value was determined using a dose–response curve obtained from measurements corresponding to at least six concentrations. %Scavenger=AbsCtrl−AbsS/AbsCtrl×100
The radical scavenging activity of all compounds was first studied by the DPPH assay, which measures the ability of antioxidant compounds to donate a hydrogen atom to the violet 2,2-diphenyl-1-picrylhydrazyl radical and transform it into a nonradical species. Thus, it is generally considered to belong to the hydrogen atom transfer (HAT) category of methods for measurement of antioxidant activity.

[3] = tested on: neuroblastoma SHSY5Y cells; test: Cytotoxicity in SHSY5Y cells (MTT reduction); format: cell-based; conditions: for LD50: MTT reduction
Procedure: SH-SY5Y cells (ECACC 94030304, Porton Down, Salisbury, UK), from passages between 4 and 16 after defreezing, were maintained in a MEM/F12 containing […] nonessential amino acids and supplemented with 10% fetal bovine serum (FBS), glutamine 1 mM, 50 units/mL of penicillin, and 50 μg/mL of streptomycin (GIBCO, Madrid, Spain). Cells were harvested in a […] flask and incubated at 37 °C with wet atmosphere and 5% CO2, carrying out passages 1:4 twice a week. For neuroprotection experiments, cells were seeded in 96-well plates at a density of 60,000 cells/well. For the toxicity experiments, cells were treated with the compounds under assay before reaching confluence, in MEM/F12 with 1% FBS.
Due to their presumed electrophilicity, the neurotoxicity of our compounds was investigated by investigating their influence on cell viability in the neuroblastoma SHSY5Y cell line prior to other studies in cell cultures. […] It is relevant to note that, despite their reputation for toxicity, interest in covalent drugs has undergone a renaissance, and about 30% of the recently marketed drugs belong to this class.

Row | Compound | inhibition at 10 µM [1] [%] | DPPH Scavenging at 0.1 mM, % [2] [%] | DPPH Scavenging at 1 mM, % [2] [%] | toxicity assessment [3] | LD50 [3] [µM] | IC50 [1] [µM] | radical scavenging activity in the DPPH assay [2] | IC50 [2] [µM]
1 | COC(=O)C1=C(C)N(Cc2ccccc2)C(=O)/C1=C\c1ccccc1 [Compound 3a, Methyl (Z)-1-Benzyl-4-benzylidene-2-methyl-5-oxo-4,5-dihydro-1H-pyrrole-3-carboxylate] | 27.4 | 9.7 ± 3.8 | 47.5 ± 4.9 | too toxic | 63.7 ± 12.8 | – | – | –
2 | COC(=O)C1=C(C)N(Cc2ccccc2)C(=O)/C1=C\c1ccc(OC)cc1 [Compound 3b, Methyl (Z)-1-Benzyl-4-(4-methoxybenzylidene)-2-methyl-5-oxo-4,5-dihydro-1H-pyrrole-3-carboxylate] | 36.7 | 6.5 ± 4.5 | 27.2 ± 6.4 | – | >100 | 29.7 ± 3 | – | –
3 | COC(=O)C1=C(C)N(Cc2ccccc2)C(=O)/C1=C\c1ccc(Cl)cc1 [Compound 3c, Methyl (Z)-1-Benzyl-4-(4-chlorobenzylidene)-2-methyl-5-oxo-4,5-dihydro-1H-pyrrole-3-carboxylate] | 33.5 | 3.7 ± 3.8 | 36.6 ± 3.4 | too toxic | – | – | – | –
4 | COC(=O)C1=C(C)N(CCc2ccccc2)C(=O)/C1=C\c1ccc2c(c1)OCO2 [Compound 3d, Methyl (Z)-4-(Benzo[d](1,3)dioxol-5-ylmethylene)-2-methyl-5-oxo-1-phenethyl-4,5-dihydro-1H-pyrrole-3-carboxylate] | 25.2 | 40.5 ± 5.0 | 41.6 ± 4.1 | – | >100 | – | – | –
5 | COC(=O)C1=C(C)N(CCc2ccccc2)C(=O)/C1=C\c1ccc(OC)cc1OC [Compound 3e, Methyl (Z)-4-(2,4-Dimethoxybenzylidene)-2-methyl-5-oxo-1-phenethyl-4,5-dihydro-1H-pyrrole-3-carboxylate] | 24.3 | 6.33 ± 4.2 | 27.0 ± 2.6 | – | >100 | – | – | –
6 | COC(=O)C1=C(C)N(CCc2ccccc2)C(=O)/C1=C\c1cc(OC)c(OC)cc1OC [Compound 3f, Methyl (Z)-2-Methyl-5-oxo-1-phenethyl-4-(2,4,5-trimethoxybenzylidene)-4,5-dihydro-1H-pyrrole-3-carboxylate] | 29.3 | 9.7 ± 0.6 | 9.7 ± 2.2 | – | >100 | – | – | –
7 | COC(=O)C1=C(C)N(CCc2ccccc2)C(=O)/C1=C\c1cc(OC)c(OC)c(OC)c1 [Compound 3g, Methyl (Z)-2-Methyl-5-oxo-1-phenethyl-4-(3,4,5-trimethoxybenzylidene)-4,5-dihydro-1H-pyrrole-3-carboxylate] | 11.6 | 8.1 ± 4.7 | 46.5 ± 2.3 | – | >100 | – | – | –
8 | COC(=O)C1=C(C)N(CCc2ccccc2)C(=O)/C1=C\c1ccc(OC)c(O)c1 [Compound 3h, Methyl (Z)-4-(3-Hydroxy-4-methoxybenzylidene)-2-methyl-5-oxo-1-phenethyl-4,5-dihydro-1H-pyrrole-3-carboxylate] | 24.2 | 89.0 ± 0.4 | – | – | >100 | – | high radical scavenging activity | 26.3 ± 2.1
9 | COC(=O)C1=C(C)N(CCc2ccccc2)C(=O)/C1=C\c1ccc(OCc2ccccc2F)c(OC)c1 [Compound 3j, Methyl (Z)-4-[4-((2-Fluorobenzyl)oxy)-3-methoxybenzylidene]-2-methyl-5-oxo-1-phenethyl-4,5-dihydro-1H-pyrrole-3-carboxylate] | 16 | 4.3 ± 2.1 | 31.3 ± 3.3 | – | >100 | – | – | –
10 | COC(=O)C1=C(C)N(CCc2ccccc2)C(=O)/C1=C\c1ccc(OCc2ccccc2Cl)c(OC)c1 [Compound 3k, Methyl (Z)-4-[4-((2-Chlorobenzyl)oxy)-3-methoxybenzylidene]-2-methyl-5-oxo-1-phenethyl-4,5-dihydro-1H-pyrrole-3-carboxylate] | 40.1 | 7.3 ±1.4 | 27.3 ± 1.0 | – | >100 | 22.4 ± 3.2 | – | –
11 | COC(=O)C1=C(C)N(CCc2ccccc2)C(=O)/C1=C\c1ccc(OCc2ccc(Cl)cc2)c(OC)c1 [Compound 3l, Methyl (Z)-4-[4-((4-Chlorobenzyl)oxy)-3-methoxybenzylidene]-2-methyl-5-oxo-1-phenethyl-4,5-dihydro-1H-pyrrole-3-carboxylate] | 26.2 | 11.3 ± 2.6 | 63.5 ± 2.2 | – | >100 | – | – | 712.2 ± 5.4
12 | COC(=O)C1=C(C)N(CCc2ccc(OC)c(OC)c2)C(=O)/C1=C\c1ccc(OCc2ccc(Cl)cc2)c(OC)c1 [Compound 3m, Methyl (Z)-4-[4-((4-Chlorobenzyl)oxy)-3-methoxybenzylidene]-1-(3,4-dimethoxyphenethyl)-2-methyl-5-oxo-4,5-dihydro-1H-pyrrole-3-carboxylate] | 31.8 | 22.8 ± 0.2 | 85.5 ± 2.7 | – | >100 | – | – | 334 ± 22.9
13 | COC(=O)C1=C(C)N(CCc2ccc(OC)c(OC)c2)C(=O)/C1=C\c1ccc(OCc2ccccc2Cl)c(OC)c1 [Compound 3n, Methyl (Z)-4-[4-((2-Chlorobenzyl)oxy)-3-methoxybenzylidene]-1-(3,4-dimethoxyphenethyl)-2-methyl-5-oxo-4,5-dihydro-1H-pyrrole-3-carboxylate] | 17.6 | 12.7 ± 3.5 | 73.6 ± 0.7 | – | >100 | – | – | 552 ± 17.4
14 | COC(=O)C1=C(C)N(CCc2ccccc2)C(=O)/C1=C\c1c[nH]c2ccccc12 [Compound 3o, Methyl (Z)-4-((1H-Indol-3-yl)methylene)-2-methyl-5-oxo-1-phenethyl-4,5-dihydro-1H-pyrrole-3-carboxylate] | 39.8 | 12.7 ± 1.9 | 49.9 ± 3.4 | – | >100 | 12.5 ± 1.4 | – | –
